# According to the METLIN SMRT retention time set (Domingo-Almenara et al. 2019):
# Test: gradient 5% acetonitrile 3 min, to 50% in 2 min, to 85% in 15 min, held 3 min, 100 µL/min
# Conditions: column: Zorbax Extend-C18 2.1 x 50 mm; eluents: water / acetonitrile, 0.1% formic acid
# Outline: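 In both positive and negative ionization mode, a quadrupole time-of-flight mass spectrometer coupled to HPLC analyzed pure standards run in mixtures of ~100 molecules. The Zorbax Extend-C18 column (2.1 × 50 mm, 1.8 μm) was operated at 100 μL/min with water and acetonitrile, each containing 0.1% formic acid. The dead volume was 40 μL and the dwell volume 900 μL. Retention time came from adduct peaks that were computationally picked and individually inspected by hand.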
row,SMILES,RP-LC retention time
1,CN1CCc2[nH]cnc2C12CCN(C(=O)Nc1ccc(Cl)cc1F)C2 (stereo unspecified),567 s
2,CCn1cc2c3c(cccc31)CN(C(=O)Nc1ccc(OC)c(Cl)c1)CC2,977 s
3,CCCN1CCN(C(=O)Cn2ccc3ccc(-c4nnc(C)o4)cc32)CC1,589 s
4,Cc1ccc(CNC(=O)c2ccc3c(c2)ncn3CCN2CCCC2)cc1C,595 s
5,CNC(=O)Cc1csc(-c2ccccc2F)n1,725 s
6,CNC(=O)Nc1ccc(-c2nc(N3CC4CCC(C3)O4)c3cnn(C4CCC5(CC4)OCCO5)c3n2)cc1,794 s
7,Cc1c(Cl)cccc1Nc1ncccc1C(=O)O,841 s
8,CCOc1ccc(NC(=O)N2CCC(n3c(-c4ccoc4)nc4cccnc43)C2)cc1 (stereo unspecified),735 s
9,CCCCNC(=O)CCC(=O)N1CC2CCCN2c2ccccc21 (stereo unspecified),837 s
10,CN(CC1CCOC1)C(=O)Nc1cccc(C(F)(F)F)c1 (stereo unspecified),784 s
11,CCCNC(=O)C1CCN(c2nc3ccsc3c(=O)n2-c2cccc(OC)c2)CC1,675 s
12,CN1C(=O)c2cc(C(=O)Nc3ccc(F)cc3F)nn2CC1(C)C(=O)NC1CCCCC1 (stereo unspecified),732 s
13,Cc1cc(N2CCN(C)CC2)n2nc(-c3ccc(C(C)(C)C)cc3)nc2n1,656 s
14,N#CCc1ccc(NC(=O)C2CCCN(S(=O)(=O)Cc3ccc(Cl)cc3)C2)cc1 (stereo unspecified),905 s
15,CC(C(=O)NCCN1CCCCC1)n1c2ccccc2c2cnn(C)c(=O)c21 (stereo unspecified),628 s
16,COc1ccc(NC(=O)N2C[C@@H]3C[C@H]2C[C@@H]3NS(=O)(=O)c2ccccc2)cc1F,778 s
17,Oc1cccc(-c2nc3cnc(Br)cn3c2Nc2cccc(C(F)(F)F)c2)c1,902 s
18,Cc1cc(C)n(CC2CCN(C(=O)c3cc4ccccc4[nH]3)CC2)n1,717 s
19,CCOCCCNC(=O)c1nnc(-c2ccc(S(=O)(=O)N3CCCCC3)cc2)o1,762 s

# Further lines, results first:
row,RP-LC retention time,SMILES
1,719 s,Cc1nc(Nc2ccc(F)cn2)sc1C(=O)N1CCN(c2ncccn2)CC1
2,926 s,O=C(COc1ccccc1)NCCS(=O)(=O)N1CCN(c2cccc(Cl)c2)CC1
3,791 s,CCOC(=O)C1CCN(C(=O)c2cn(-c3cc(N4CCSCC4)ncn3)cn2)CC1
4,630 s,CC(=O)c1ccc(NC(=O)c2cn(C)nc2C)cc1
5,1390 s,FC(F)(F)c1cnc(N2CCN(c3ccccc3)CC2)c(Cl)c1
6,1320 s,COc1ccc(-c2cc3c4nnc(SCC(=O)Nc5cccc(Br)c5)n4ccn3n2)cc1
7,1080 s,CC1CCCN(S(=O)(=O)c2ccc(-c3nnc(C4CCCC4)o3)o2)C1 (stereo unspecified)
8,1130 s,COc1c(C(=O)NCc2ccccc2C)sc2cccc(F)c12
9,1070 s,Cc1nn(-c2ccc(-c3noc(C4CC4)n3)cc2)cc1C(=O)Nc1cc(F)ccc1F
10,926 s,COC(=O)c1ccc(NC(=O)CSc2cc(N3CCN(c4ccc(OC)cc4)CC3)ncn2)cc1
11,772 s,CCOc1ccc(OCC)c(NC(=O)C2CC(=O)N(c3cccc(NC(C)=O)c3)C2)c1 (stereo unspecified)
12,651 s,CCCCn1c(C(C)NC(=O)c2ccco2)nc2ccccc21 (stereo unspecified)
13,861 s,COc1ccccc1OCCC1CCN(S(=O)(=O)c2c(C)nn(C)c2C)C1 (stereo unspecified)
14,794 s,CC(NC(=O)Cn1c(=O)c2cccn2c2ccccc21)c1ccc2c(c1)OCCO2 (stereo unspecified)
15,794 s,Cc1ccc(Nc2c(-c3cccc([N+](=O)[O-])c3)nc3cc(C)ccn23)cc1
16,703 s,Cc1ccc(-c2nnc(-c3nc(NCc4ccccn4)c4ccccc4n3)o2)cc1
17,586 s,Cc1ccc(C)c(NC(=O)C2CC(=O)N(CCc3c[nH]c4ccc(F)cc34)C2)c1 (stereo unspecified)
